Measurements from patent US20170105967A1, “COMPOSITIONS AND METHODS OF TREATMENT OF INFLAMMATORY SKIN CONDITIONS USING ALLANTOIN” (Scioderm, Inc., priority 2010, published 2017).

Key:
[1] = in vitro; reactive sulphydryl groups released; cited from earlier work
[2] = test system: psoriatic scales; settings: in vitro incubation with allantoin solution; cited from earlier work
[3] = test system: calluses and other forms of hyperkeratization; settings: lower concentrations; cited from earlier work
[4] = percutaneous absorption through dermis only human cadaver skin; assay type: in vitro ADME; settings: isolated dermis
Procedure: The formulations A.S. 1-139E, A.S. 1-81B, A.S. 1-135C, A.S. 1-135G, and A.S. 1-81 G were tested on a minimum of triplicate sections from three different cadaver skin donors and three different porcine skin donors for the percutaneous absorption of allantoin over a 48-hour dose period. The intent of this study was to mimic the absorption of allantoin directly into the capillary bed, while the dermis only study attempted to mimic the loss of skin barrier function due to broken skin or blisters. In addition, each formulation was tested in at least triplicate membrane chambers. At preselected times after dosing, the dermal receptor solution was removed in its entirety, replaced with fresh receptor solution, and an aliquot saved for subsequent analysis. The samples were analyzed for the allantoin using high performance liquid chromatography with UV and MS detection (HPLC-UV-MS). The bottom table of FIG. 3 lists a remanufacture of the 9% allantoin cream (A.S. 1-153H) to achieve a better viscosity of the final product.

[5] = sodium lauryl sulfate and beeswax emulsion, pH 6.8 to 7.5; with time and accelerated tests at 40° C.; cited from earlier work

NC(=O)NC1NC(=O)NC1=O (centres unmarked) [allantoin]
protein dispersing activity [1]: confirm the protein dispersing activity
concentration showing keratolytic activity on psoriatic scales [2]: ≥ 0.2%
concentration loosening the desmosomes (protein bridges) [3]: < 1%
penetration of allantoin when the skin's barrier has been damaged or removed [4]: increases significantly
stability of allantoin [5]: degrades significantly
